Values of other authors, collected in patent publication US6905813B2, “Processing agent for silver halide color photosensitive material and processing method thereof” (Chugai Photo Chemical Co., Ltd., priority 2001, dated 2005).
Read-outs that look alike come from different tables or passages of the source.

[1] = Table 1, additives of Example 1
[2] = Table 3, additives of Example 2
[3] = Table 5, additives of Example 3
[4] = Table 7, additives of Example 4

| pKa [1] | pKa [2] | pKa [4] | SMILES | pKa [3] |
| --- | --- | --- | --- | --- |
|  |  |  | Nc1ccccn1 [2-aminopyridine] | 6.79 |
| 8.74 | 8.74 | 8.74 | CC(N)CCN (centres unmarked) [1,3-diaminobutane] |  |
| 9.44 | 9.44 | 9.44 | NCCCCN [1,4-diaminobutane] |  |

| SMILES | pKa [1] | pKa [2] | pKa [4] | pKa [3] |
| --- | --- | --- | --- | --- |
| O=S([O-])[O-].[Na+].[Na+] [Sodium sulfite] | 7.19 | 7.19 | 7.19 | 7.19 |
